Where two headings read alike, the source gives them in different places.
What was measured:
[1] = biological target: T1, recombinant human fatty acid amide hydrolase (Homo sapiens, UniProt O00519); test: FAAH inhibition enzyme assay, human enzyme (COS-7 lysate); assay type: biochemical; conditions: Table 3
T1 construct: The full-length human FAAH (hFAAH) was expressed in COS-7 cells as described; expressed in transfected cells; host or cells: COS-7
T1 sequence (O00519 1-579): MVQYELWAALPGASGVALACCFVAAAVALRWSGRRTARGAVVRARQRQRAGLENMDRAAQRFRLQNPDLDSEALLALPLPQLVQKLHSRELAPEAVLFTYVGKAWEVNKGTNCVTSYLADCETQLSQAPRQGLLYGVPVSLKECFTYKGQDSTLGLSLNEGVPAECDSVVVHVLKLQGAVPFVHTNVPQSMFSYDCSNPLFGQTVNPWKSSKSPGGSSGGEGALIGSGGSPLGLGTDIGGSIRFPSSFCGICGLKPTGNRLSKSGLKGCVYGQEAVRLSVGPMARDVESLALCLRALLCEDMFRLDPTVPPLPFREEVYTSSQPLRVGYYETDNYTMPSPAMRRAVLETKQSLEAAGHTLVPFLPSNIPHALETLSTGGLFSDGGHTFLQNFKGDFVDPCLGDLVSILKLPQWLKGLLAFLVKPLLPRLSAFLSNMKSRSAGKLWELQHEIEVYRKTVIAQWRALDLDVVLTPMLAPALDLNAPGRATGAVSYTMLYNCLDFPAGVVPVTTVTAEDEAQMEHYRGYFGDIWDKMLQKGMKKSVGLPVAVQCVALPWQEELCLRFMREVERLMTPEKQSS
From the text: (§1) The purified recombinant rFAAH was used in the inhibition assays unless otherwise indicated.
(§2) The ^14C-labeled oleamide (substrate) and oleic acid (product) were extracted with EtOAc and analyzed by TLC.

[2] = biological target: T2, purified recombinant rat FAAH (Rattus norvegicus, UniProt P97612); test: FAAH inhibition enzyme assay (14C-oleamide hydrolysis, Dixon plot), rat enzyme; assay type: biochemical
T2 construct: The truncated rat FAAH (rFAAH) was expressed in E. coli and purified as described; made in house; host or cells: Escherichia coli
T2 sequence (P97612 30-579 limits assumed): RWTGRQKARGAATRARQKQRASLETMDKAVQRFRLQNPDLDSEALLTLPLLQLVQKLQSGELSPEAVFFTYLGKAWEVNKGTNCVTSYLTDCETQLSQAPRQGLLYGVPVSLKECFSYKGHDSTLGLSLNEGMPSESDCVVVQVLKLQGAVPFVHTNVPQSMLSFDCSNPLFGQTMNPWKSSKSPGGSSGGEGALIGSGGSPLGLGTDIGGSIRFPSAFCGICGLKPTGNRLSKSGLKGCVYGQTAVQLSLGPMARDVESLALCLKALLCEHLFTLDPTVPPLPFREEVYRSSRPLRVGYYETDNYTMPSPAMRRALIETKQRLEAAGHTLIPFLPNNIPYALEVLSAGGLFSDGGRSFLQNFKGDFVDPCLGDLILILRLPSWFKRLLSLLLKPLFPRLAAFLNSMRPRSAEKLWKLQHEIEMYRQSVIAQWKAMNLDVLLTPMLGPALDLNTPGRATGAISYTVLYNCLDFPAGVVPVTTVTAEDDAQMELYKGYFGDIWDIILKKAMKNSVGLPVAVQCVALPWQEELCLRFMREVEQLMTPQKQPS
From the text: as §1, §2

[3] = biological target: T3, FAAH (Mus musculus, UniProt O08914); test: Activity based protein profiling (proteome-wide selectivity screening, FP-Rh), FAAH; assay type: biochemical; conditions: Table 4
T3 construct: with FP-Rh in brain and heart membrane proteome; from tissue; host or cells: brain and heart membrane proteome
T3 sequence (O08914 1-579): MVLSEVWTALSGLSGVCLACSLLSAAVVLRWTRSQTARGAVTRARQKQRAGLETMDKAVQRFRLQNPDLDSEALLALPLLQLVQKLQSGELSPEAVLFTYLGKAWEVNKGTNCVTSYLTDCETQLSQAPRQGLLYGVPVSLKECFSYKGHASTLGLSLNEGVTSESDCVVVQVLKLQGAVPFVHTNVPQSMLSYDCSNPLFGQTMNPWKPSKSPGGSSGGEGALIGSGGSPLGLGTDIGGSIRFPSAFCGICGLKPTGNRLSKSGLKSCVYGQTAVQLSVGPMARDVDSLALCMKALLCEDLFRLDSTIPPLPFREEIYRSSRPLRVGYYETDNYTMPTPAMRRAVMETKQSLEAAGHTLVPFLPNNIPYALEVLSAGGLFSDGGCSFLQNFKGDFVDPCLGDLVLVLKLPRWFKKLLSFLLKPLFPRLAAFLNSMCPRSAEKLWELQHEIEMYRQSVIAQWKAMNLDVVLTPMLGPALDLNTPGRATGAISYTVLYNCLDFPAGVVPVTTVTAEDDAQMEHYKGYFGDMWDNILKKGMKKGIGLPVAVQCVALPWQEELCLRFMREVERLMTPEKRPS
From the text: (§3) Enzyme targets such as FAAH, KIAA1363, and TGH are labeled at the left margin.

[4] = biological target: T4, KIAA1363 (Mus musculus, UniProt Q8BLF1); test: Activity based protein profiling (proteome-wide selectivity screening, FP-Rh), KIAA1363; assay type: biochemical; conditions: Table 4; for IC50: activity based protein profiling; for KIAA1363 selectivity (value in parentheses): ratio KIAA1363 IC50 / FAAH IC50 (fold selectivity for FAAH)
T4 construct: with FP-Rh in brain and heart membrane proteome; from tissue; host or cells: brain and heart membrane proteome
T4 sequence (Q8BLF1 1-408): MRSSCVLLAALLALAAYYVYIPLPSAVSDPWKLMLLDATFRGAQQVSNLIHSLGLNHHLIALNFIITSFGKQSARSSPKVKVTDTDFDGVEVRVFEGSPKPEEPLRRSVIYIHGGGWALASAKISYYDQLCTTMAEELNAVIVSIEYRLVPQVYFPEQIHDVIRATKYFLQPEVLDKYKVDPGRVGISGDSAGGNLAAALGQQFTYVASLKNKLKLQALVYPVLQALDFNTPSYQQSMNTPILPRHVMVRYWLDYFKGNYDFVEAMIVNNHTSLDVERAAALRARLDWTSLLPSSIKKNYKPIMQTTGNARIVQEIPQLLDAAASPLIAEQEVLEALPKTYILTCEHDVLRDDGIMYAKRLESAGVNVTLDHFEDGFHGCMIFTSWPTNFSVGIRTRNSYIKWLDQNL
From the text: as §3

[5] = biological target: T5, triacylglycerol hydrolase (TGH) (Mus musculus, UniProt Q8VCT4); test: Activity based protein profiling (proteome-wide selectivity screening, FP-Rh), TGH; assay type: biochemical; conditions: Table 4; for IC50: activity based protein profiling; for TGH selectivity (value in parentheses): ratio TGH IC50 / FAAH IC50 (fold selectivity for FAAH)
T5 construct: with FP-Rh in brain and heart membrane proteome; from tissue; host or cells: brain and heart membrane proteome
T5 sequence (Q8VCT4 19-565): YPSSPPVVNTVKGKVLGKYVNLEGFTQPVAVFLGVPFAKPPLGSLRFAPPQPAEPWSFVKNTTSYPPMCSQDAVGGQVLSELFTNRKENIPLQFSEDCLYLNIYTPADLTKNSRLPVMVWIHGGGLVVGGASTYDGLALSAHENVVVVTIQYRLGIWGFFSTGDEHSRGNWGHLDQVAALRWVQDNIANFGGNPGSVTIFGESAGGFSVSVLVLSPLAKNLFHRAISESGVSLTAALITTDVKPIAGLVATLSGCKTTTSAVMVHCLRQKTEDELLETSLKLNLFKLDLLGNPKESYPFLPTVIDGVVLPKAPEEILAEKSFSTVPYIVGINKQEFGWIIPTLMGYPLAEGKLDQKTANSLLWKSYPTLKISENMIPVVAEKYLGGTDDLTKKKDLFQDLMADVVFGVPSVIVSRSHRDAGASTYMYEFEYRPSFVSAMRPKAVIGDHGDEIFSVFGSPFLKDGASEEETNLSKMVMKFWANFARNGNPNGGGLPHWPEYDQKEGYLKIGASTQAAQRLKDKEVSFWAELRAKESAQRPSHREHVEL
From the text: as §3

[6] = CREAE mice; cited from earlier work
[7] = rats; cited from earlier work
[8] = rats; cited from earlier work; remark: listed apart in the source
[9] = rat; cited from earlier work
[10] = tested on: FAAH; conditions: cited from earlier work
[11] = rats; cited from earlier work; remark: listed apart in the source
[12] = rats; cited from earlier work; remark: listed apart in the source
[13] = Table 2, rat FAAH, pH 9 assay conditions, read-out: Ki
[14] = Table 3, rat FAAH, read-out: Ki, μM (rat)

SMILES | Ki [1] [µM] | IC50 [3] [nM] | IC50 [4] [nM] | KIAA1363 selectivity (value in parentheses) [4] | IC50 [5] [nM] | TGH selectivity (value in parentheses) [5] | Ki [2, 13] [µM] | Ki [2, 14] [µM] | Ki ([2]; Table 4, read-out: FAAH Ki) [µM] | other results
O=C(O)c1cccc(-c2cnc(C(=O)CCCCCCc3ccccc3)o2)n1 [7g] | 0.026 | 100 | > 100000 | > 1000 | > 100000 | > 1000 | – | – | – | Ki ([2]; pH=7.4 (physiological pH), read-out: Ki): 0.0103 µM; Ki ([2]; pH=8, read-out: Ki): 0.0145 µM
O=C(CCCCCCc1ccccc1)c1nnc(-c2ccccn2)o1 [8b, 7-Phenyl-1-(5-(pyridin-2-yl)-1,3,4-oxadiazol-2-yl)-heptan-1-one] | 0.0012 | – | 90000 | 90000 | – | 140 | 0.00029 | 0.00029 | 0.00029 | –
O=C(CCCCCCc1ccccc1)c1nc(-c2ccccn2)no1 [9b, 7-Phenyl-1-(3-(pyridin-2-yl)-1,2,4-oxadiazol-5-yl)-heptan-1-one] | 0.00092 | 3 | 30000 | 10000 | 30 | 10 | 0.00034 | 0.00034 | 0.00034 | –
O=C(CCCCCCc1ccccc1)c1noc(-c2ccccn2)n1 [10b, 7-Phenyl-1-(5-(pyridin-2-yl)-1,2,4-oxadiazol-3-yl)-heptan-1-one] | 0.016 | 7 | > 100000 | > 14000 | 400 | 60 | 0.0011 | 0.0011 | 0.0011 | –
O=C(O)c1cccc(-c2nc(C(=O)CCCCCCc3ccccc3)no2)n1 [10g, 6-(3-(7-Phenylheptanoyl)-1,2,4-oxadiazol-5-yl)-picolinic Acid] | 0.11 | 70 | > 100000 | > 1400 | > 100000 | > 1400 | 0.053 | 0.053 | 0.053 | –
O=C(CCCCCCc1ccccc1)c1nnc(-c2ccccn2)s1 [12b, 7-Phenyl-1-(5-(pyridin-2-yl)-1,3,4-thiadiazol-2-yl)-heptan-1-one] | 0.003 | 30 | > 100000 | > 3300 | 4500 | 150 | 0.0008 | 0.0008 | 0.0008 | –
CCCCCCCCCCCCCCCCS(=O)(=O)F [AM374] | – | – | – | – | – | – | – | – | – | spasticity [6]: significantly reduce spasticity
Cc1nc(-c2ccccc2)c(-c2ccccc2)n1CCCCCCNC(=O)Oc1ccccc1F [BMS-1] | – | – | – | – | – | – | – | – | – | analgesic effect [7]: analgesic effect; analgesic effect [8]: analgesic effect
O=C(CCCCCCc1ccccc1)c1ncc(-c2ccccn2)o1 [OL-135] | – | – | – | – | – | – | – | – | – | analgesic efficacy / activity, hot plate [9]: analgesic activity; FAAH inhibition (in words) [10]: potent inhibitor; analgesic activity, tail emersion [11]: analgesic activity
NC(=O)c1cccc(-c2cccc(OC(=O)NC3CCCCC3)c2)c1 [URB-597] | – | – | – | – | – | – | – | – | – | analgesic efficacy / activity, hot plate [9]: analgesic efficacy; efficacy in model of anxiety [12]: efficacy

From patent publication US8987312B2, “Alpha-keto heterocycles as FAAH inhibitors” (The Scripps Research Institute, priority 2008, dated 2015)
